Data reported in patent publication US7846955B2, “Salt” (AstraZeneca AB, priority 2007, dated 2010).
Counter-ions that a name gives are not always drawn.

Key:
[1] = Gravimetric vapour sorption (GVS) water uptake; assay type: physicochemical; settings: at 80% RH (±0.3%), 25° C.
Description: • XRPD—PANalytical CubiX PRO machine in Ø-Ø configuration over the scan range 2° to 40° 2Ø with 100-second exposure per 0.02° increment. The X-rays were generated by a copper long-fine focus tube operated at 45 kV and 40 mA. The wavelength of the copper X-rays was 1.5418 Å. The Data was collected on zero background holders on which ˜2 mg of the compound was placed. The holder was made from a single crystal of silicon, which had been cut along a non-diffracting plane and then polished on an optically flat finish. The X-rays incident upon this surface were negated by Bragg extinction. • DSC thermograms were measured using a TA Q1000 Differential Scanning Calorimeter, with aluminium pans and pierced lids. The sample weights varied between 0.5 to 5 mg. The procedure was carried out under a flow of nitrogen gas (50 ml/min) and the temperature studied from 25 to 300° C. at a constant rate of temperature increase of 10° C. per minute. • TGA thermograms were measured using a TA Q500 Thermogravimetric Analyser, with platinum pans. The sample weights varied between 1 and 5 mg. The procedure was carried out under a flow of nitrogen gas (60 ml/min) and the temperature studied from 25 to 200° C. at a constant rate of temperature increase of 10° C. per minute. • GVS profiles were measured using a Dynamic Vapour Sorption DVS-1 instrument. […]

[2] = Evaluation of deaggregation properties of micronised material (Fine Particle Fraction); assay type: physicochemical; settings: across relative humidity 0-75% RH
Excerpt: ‘Salt Form A’ was Micronised in a 50 mm jet mill, with ejector pressure 5 bar and milling pressure 1.5-2 bar, giving (90% yield). Particle size of the micronised material as determined by Malvern Laser Diffraction with dry powder feeder was d(0.1) 0.77 μm: d(0.5), 1.45μ: d(0.9): 2.65 μm.

[3] = molecular target: human muscarinic receptors (M3) (Homo sapiens, UniProt P20309); assay: Muscarinic Receptor Radioligand Binding Assay (SPA, [3H]-NMS); settings: human M3 membranes on SPA beads, 16 hours incubation, read-out: M3 binding pIC50 (converted)
human muscarinic receptors (M3), sequence (P20309 whole entry): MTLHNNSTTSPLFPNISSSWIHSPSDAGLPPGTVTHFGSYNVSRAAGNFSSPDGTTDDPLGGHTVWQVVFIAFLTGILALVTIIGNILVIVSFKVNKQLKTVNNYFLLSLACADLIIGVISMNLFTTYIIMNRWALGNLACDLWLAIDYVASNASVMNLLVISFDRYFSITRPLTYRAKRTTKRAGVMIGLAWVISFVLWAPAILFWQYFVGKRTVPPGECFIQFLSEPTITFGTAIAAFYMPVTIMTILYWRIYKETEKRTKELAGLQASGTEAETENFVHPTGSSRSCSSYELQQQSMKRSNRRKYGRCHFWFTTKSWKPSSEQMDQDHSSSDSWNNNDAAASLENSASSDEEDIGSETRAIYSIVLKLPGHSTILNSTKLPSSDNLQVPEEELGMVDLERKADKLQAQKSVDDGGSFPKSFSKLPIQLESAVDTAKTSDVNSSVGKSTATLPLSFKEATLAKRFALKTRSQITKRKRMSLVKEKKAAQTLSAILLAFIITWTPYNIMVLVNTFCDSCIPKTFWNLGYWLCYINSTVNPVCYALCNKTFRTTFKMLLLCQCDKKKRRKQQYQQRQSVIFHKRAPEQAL
Description: The inhibitory effects of compounds of the napadisylate salt were determined by a Muscarinic Receptor Radioligand Binding Assay. Radioligand binding studies were carried out in Scintillation Proximity Assay (SPA) format utilising [3H]-N-methyl scopolamine ([3H]-NMS) and cell membranes expressing the human muscarinic receptors (M2 or M3) which were coated onto SPA beads. Coated SPA beads were incubated in 96-well plates in HEPES buffer with [3H]-NMS and M3 antagonist at various concentrations for 16 hours. Radioligand binding was then counted using a Wallac Microbeta scintillation counter.

Row | GVS weight increase [1] | Fine Particle Fraction (FPF) [2] [%] | IC50 [3] [nM] | SMILES
1 | less than 0.5 % w/w | > 60 | – | C[N+](C)(CCOCc1ccc(Cl)cc1)Cc1cnc([C@](O)(c2ccccc2)C2CCCCC2)o1 [Salt Form A, [2-(4-chloro-benzyloxy)-ethyl]-[2-((R)-cyclohexyl-hydroxy-phenyl-methyl)-oxazol-5-ylmethyl]-dimethyl-ammonium hemi-naphthalene-1,5-disulfonate]
2 | – | – | 0.158 | C[N+](C)(CCOCc1ccc(Cl)cc1)Cc1cnc([C@](O)(c2ccccc2)C2CCCCC2)o1 [[2-(4-chloro-benzyloxy)-ethyl]-[2-((R)-cyclohexyl-hydroxy-phenyl-methyl)-oxazol-5-ylmethyl]-dimethyl-ammonium]
